# From patent US10087167B2, “Benzofurans substituted with secondary benzamide as HCV inhibitors” (priority 2015, dated 2018)
# Test system: HCV
# Assay: not given
# Conditions: extended dosing of the combination regimens; cited from earlier work
row,Compound,hepatic toxicity
1,CNC(=O)c1c(-c2ccc(F)cc2)oc2cc(N(CCO)S(C)(=O)=O)c(C3CC3)cc12 [HCV-796],hepatic toxicity observed

# Test system: HCV
# Assay: not given
# Conditions: combination therapy; cited from earlier work
row,Compound,sustained efficacy
1,alpha-interferon and ribavirin,40 % of patients

# Test system: HCV replicon
# Assay: HCV replicon luciferase assay
# Format: cell-based
# Conditions: Hepatitis C virus, Huh-7, 72 h
# Description: The cell lines used to evaluate compounds consist of a human hepatocyte derived cell line (Huh-7) that constitutively expresses a genotype 1b (Con-1) HCV replicon or a genotype 1b (Con-1) HCV replicon with an asparagine replacing the cysteine at amino acid 316, or a genotype 2a (JFH-1) replicon, containing a Renilla luciferase reporter gene. These cells were maintained in Dulbecco's modified Eagle medium (DMEM) containing 10% FBS, 100 U/mL penicillin/streptomycin and 1.0 mg/mL G418.
# To evaluate compound efficacy, titrated compounds were transferred to sterile 384-well tissue culture treated plates, and the plates were seeded with HCV replicon cells (50 μL at a density of 2.4×10^3 cells/well) in DMEM containing 4% FBS (final DMSO concentration at 0.5%). After 3 days incubation at 37° C., cells were analyzed for Renilla Luciferase activity using the EnduRen substrate (Promega cat #E6485) according to the manufacturer's directions. Briefly, the EnduRen substrate was diluted in DMEM and then added to the plates to a final concentration of 7.5 μM. The plates were incubated for at least 1 h at 37° C. then read on a Viewlux Imager (PerkinElmer) using a luminescence program. The 50% effective concentration (EC50) was calculated using the four-parameter logistic formula noted above.
# Compound EC50 data is expressed as A: <100 nM; B=100-1000 nM; C>1000 nM).
row,Compound,EC50
1,CNC(=O)c1c(-c2ccc(F)cc2)oc2cc(N(CCF)S(C)(=O)=O)c(-c3cccc(C(=O)N4CCC(=C(c5ccccc5)c5nnc(C)o5)CC4)c3)cc12 [Compound 4012],27.1 nM
2,CNC(=O)c1c(-c2ccc(F)cc2)oc2cc(N(CCF)S(C)(=O)=O)c(-c3cccc(C(=O)N4CC(O)C[C@H]4C(=O)OCc4ccccc4)c3)cc12 (stereo partly shown) [Compound 4018],100 to 1000 nM
3,CNC(=O)c1c(-c2ccc(F)cc2)oc2cc(N(CCF)S(C)(=O)=O)c(-c3cccc(C(=O)N4CCC(NC(=O)OC(C)(C)C)(C(F)(F)F)C4)c3)cc12 (stereo not shown) [Compound 4022],< 100 nM
4,CNC(=O)c1c(-c2ccc(F)cc2)oc2cc(N(CCF)S(C)(=O)=O)c(-c3cccc(C(=O)N4CC[C@@H](F)C4)c3)cc12 [Compound 4024],76.5 nM
5,CNC(=O)c1c(-c2ccc(F)cc2)oc2cc(N(CCF)S(C)(=O)=O)c(-c3cccc(C(=O)N4CC(F)(F)C(F)(F)C4)c3)cc12 [Compound 4025],< 100 nM
6,CNC(=O)c1c(-c2ccc(F)cc2)oc2cc(N(CCF)S(C)(=O)=O)c(-c3cccc(C(=O)N4CCC(=C(C#N)c5ccccc5)CC4)c3)cc12 [Compound 4013],< 100 nM
7,CNC(=O)c1c(-c2ccc(F)cc2)oc2cc(N(CCF)S(C)(=O)=O)c(-c3cccc(C(=O)N4CCN(c5nnnn5-c5ccccc5)CC4)c3)cc12 [Compound 4008],107 nM
8,CNC(=O)c1c(-c2ccc(F)cc2)oc2cc(N(CCF)S(C)(=O)=O)c(-c3cccc(C(=O)N4CCCC4c4nccs4)c3)cc12 (stereo not shown) [Compound 4023],< 100 nM
9,CNC(=O)c1c(-c2ccc(F)cc2)oc2cc(N(CCF)S(C)(=O)=O)c(-c3cccc(C(=O)N4CCNC(=O)C45CCCC5)c3)cc12 [Compound 4026],< 100 nM
10,CNC(=O)c1c(-c2ccc(F)cc2)oc2cc(N(CCF)S(C)(=O)=O)c(-c3cccc(C(=O)N4CC[C@H](F)C4)c3)cc12 [Compound 4020],45 nM
11,CNC(=O)c1c(-c2ccc(F)cc2)oc2cc(N(CCF)S(C)(=O)=O)c(-c3cccc(C(=O)N4CCC(=C(C#N)c5ccccn5)CC4)c3)cc12 [Compound 4014],< 100 nM
12,CNC(=O)c1c(-c2ccc(F)cc2)oc2cc(N(CCF)S(C)(=O)=O)c(-c3cccc(C(=O)N4CCN(/C(=N/C#N)c5ccccc5)CC4)c3)cc12 [Compound 4006],100 to 1000 nM
13,CNC(=O)c1c(-c2ccc(F)cc2)oc2cc(N(CCF)S(C)(=O)=O)c(-c3cccc(C(=O)N4CCCC4c4ccc(N(C)C)cc4)c3)cc12 (stereo not shown) [Compound 4016],84.8 nM
14,CNC(=O)c1c(-c2ccc(F)cc2)oc2cc(N(CCF)S(C)(=O)=O)c(-c3cccc(C(=O)N4CCN(C(=O)N5CCOCC5)CC4)c3)cc12 [Compound 4004],1690 nM
15,CNC(=O)c1c(-c2ccc(F)cc2)oc2cc(N(CCF)S(C)(=O)=O)c(-c3cccc(C(=O)N4CCN(c5ncccn5)CC4)c3)cc12 [Compound 4003],< 100 nM
16,CNC(=O)c1c(-c2ccc(F)cc2)oc2cc(N(CCF)S(C)(=O)=O)c(-c3cccc(C(=O)N4CCC[C@@H]4C(N)=O)c3)cc12 [Compound 4017],> 1000 nM

row,Compound,EC50
1,CCNc1cc2oc(-c3ccc(F)cc3)c(C(=O)NC)c2cc1-c1cccc(C(=O)N2CCNC(C#N)C2)c1 (stereo not shown) [Compound 2001],100 to 1000 nM
2,CCN(c1cc2oc(-c3ccc(F)cc3)c(C(=O)NC)c2cc1-c1cccc(C(=O)N2CCN(C(=O)OC(C)(C)C)C[C@@H]2C#N)c1)S(C)(=O)=O [Compound 3001],< 100 nM
3,CNC(=O)c1c(-c2ccc(F)cc2)oc2cc(N(CCF)S(C)(=O)=O)c(-c3cccc(C(=O)N4CC[C@@H](C#N)C4)c3)cc12 [Compound 4021],> 1000 nM
4,CNC(=O)c1c(-c2ccc(F)cc2)oc2cc(N(CCF)S(C)(=O)=O)c(-c3cccc(C(=O)N4CCN(C(=O)OC(C)(C)C)CC4CC(=O)OC)c3)cc12 (stereo not shown) [Compound 4005],< 100 nM
5,CNC(=O)c1c(-c2ccc(F)cc2)oc2cc(N(CCF)S(C)(=O)=O)c(-c3cccc(C(=O)N4CC(F)(F)C[C@H]4C(N)=O)c3)cc12 [Compound 4019],> 1000 nM
6,CNC(=O)c1c(-c2ccc(F)cc2)oc2cc(N(CCF)S(C)(=O)=O)c(-c3cccc(C(=O)N4CCN(c5nnnn5-c5ccccc5)[C@H](C)C4)c3)cc12 [Compound 4010],< 100 nM
7,CNC(=O)c1c(-c2ccc(F)cc2)oc2cc(N(CCF)S(C)(=O)=O)c(-c3cccc(C(=O)N4CCN(c5nnnn5-c5ccccc5)C[C@@H]4C)c3)cc12 [Compound 4009],< 100 nM
8,CCOC(=O)CC1C(=O)NCCN1C(=O)c1cccc(-c2cc3c(C(=O)NC)c(-c4ccc(F)cc4)oc3cc2N(CCF)S(C)(=O)=O)c1 (stereo not shown) [Compound 4027],> 1000 nM
9,CNC(=O)c1c(-c2ccc(F)cc2)oc2cc(N(CCF)S(C)(=O)=O)c(-c3cccc(C(=O)N4CCC(=C(c5ccccc5)c5ccccc5)CC4)c3)cc12 [Compound 4011],< 100 nM
10,CNC(=O)c1c(-c2ccc(F)cc2)oc2cc(N(CCF)S(C)(=O)=O)c(-c3cccc(C(=O)N4CCN(C5CC5)CC4)c3)cc12 [Compound 4002],< 100 nM
11,CNC(=O)c1c(-c2ccc(F)cc2)oc2cc(N(CCF)S(C)(=O)=O)c(-c3cccc(C(=O)N4CCN(C(=C(C#N)C#N)c5ccccc5)CC4)c3)cc12 [Compound 4007],< 100 nM
12,CCN(c1cc2oc(-c3ccc(F)cc3)c(C(=O)NC)c2cc1-c1cccc(C(=O)N2CCN(S(C)(=O)=O)C(C#N)C2)c1)S(C)(=O)=O (stereo not shown) [Compound 3003],25.2 nM
13,CCN(c1cc2oc(-c3ccc(F)cc3)c(C(=O)NC)c2cc1-c1cccc(C(=O)N2CCN(C(=O)OC(C)(C)C)C[C@H]2C#N)c1)S(C)(=O)=O [Compound 3002],< 100 nM
14,CNC(=O)c1c(-c2ccc(F)cc2)oc2cc(N(CCF)S(C)(=O)=O)c(-c3cccc(C(=O)N4CCCC4C(F)(F)F)c3)cc12 (stereo not shown) [Compound 4015],< 100 nM
15,CCN(CC)c1cc2oc(-c3ccc(F)cc3)c(C(=O)NC)c2cc1-c1cccc(C(=O)N2CC(F)(F)C2)c1 [Compound 1001],45.4 nM
16,CNC(=O)c1c(-c2ccc(F)cc2)oc2cc(N(CCF)S(C)(=O)=O)c(-c3cccc(C(=O)N4CCN(C(=O)C(F)(F)F)CC4)c3)cc12 [Compound 4001],> 1000 nM
